Experimental data published in patent publication US20240158446A1, “CYCLIC COMPOUND HAVING SELECTIVE INHIBITORY ACTION ON KRAS OVER HRAS AND NRAS” (CHUGAI SEIYAKU KABUSHIKI KAISHA, priority 2021, published 2024).

What was measured:
[1] = target: GDP-bound HRAS wild-type protein (Homo sapiens, UniProt P01112); test: Binding to HRAS by surface plasmon resonance (SPR), Single Cycle Kinetics; settings: SPR; GDP-bound HRAS wild-type protein vs GDP-bound KRAS wild-type protein; KD ratio class
[2] = target: GDP-bound NRAS wild-type protein (Homo sapiens, UniProt P01111); test: Binding to NRAS by surface plasmon resonance (SPR), Single Cycle Kinetics; settings: SPR; GDP-bound NRAS wild-type protein vs GDP-bound KRAS wild-type protein; KD ratio class
Chain of GDP-bound NRAS wild-type protein (P01111 whole entry): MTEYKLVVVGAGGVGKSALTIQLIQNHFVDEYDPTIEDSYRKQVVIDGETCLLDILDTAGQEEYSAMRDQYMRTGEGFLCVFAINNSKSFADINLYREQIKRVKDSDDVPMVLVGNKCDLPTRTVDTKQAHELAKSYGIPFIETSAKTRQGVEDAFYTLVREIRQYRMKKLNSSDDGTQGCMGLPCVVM

[3] = target: GDP-bound KRAS wild-type protein (Homo sapiens, UniProt P01116); test: Binding to KRAS by surface plasmon resonance (SPR), Single Cycle Kinetics; settings: SPR, Single Cycle Kinetics, 1:1 binding model; GDP-bound KRAS wild-type protein; read-out: KRAS KD
Chain of GDP-bound KRAS wild-type protein (P01116 whole entry): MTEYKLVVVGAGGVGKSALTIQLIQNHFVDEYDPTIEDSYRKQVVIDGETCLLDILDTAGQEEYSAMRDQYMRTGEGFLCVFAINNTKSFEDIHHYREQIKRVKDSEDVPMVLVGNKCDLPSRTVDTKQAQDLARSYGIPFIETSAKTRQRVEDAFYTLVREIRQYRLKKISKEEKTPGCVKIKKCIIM

[4] = test system: human lung cancer strain NCI-H441;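 note: cell proliferation inhibition after four days measured by CellTiter-Glo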

Chain of GDP-bound HRAS wild-type protein (P01112 whole entry): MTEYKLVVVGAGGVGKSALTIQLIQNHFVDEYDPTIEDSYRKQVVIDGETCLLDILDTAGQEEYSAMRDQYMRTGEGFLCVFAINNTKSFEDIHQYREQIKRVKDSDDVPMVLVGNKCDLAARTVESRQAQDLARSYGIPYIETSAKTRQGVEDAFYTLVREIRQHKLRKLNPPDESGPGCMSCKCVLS

| SMILES | HRAS/KRAS (ratio of KD value for HRAS to KD value for KRAS) [1] | NRAS/KRAS (ratio of KD value for NRAS to KD value for KRAS) [2] | Kd [3] [nM] | IC50 [4] [nM] |
| --- | --- | --- | --- | --- |
| CC[C@H](C)[C@@H]1NC(=O)[C@H](CC)N(C)C(=O)C[C@@H](C(=O)N2CCOCC2)N(C)C(=O)[C@H](C2CCCC2)N(C)C(=O)C2(CCC2)NC(=O)[C@@H]2CCCN2C(=O)[C@H](CCc2ccc(C(F)(F)F)c(Cl)c2)NC(=O)CN(C)C(=O)[C@H](Cc2ccc(C(F)(F)F)cc2)N2C[C@H](C)CC[C@@H](C2=O)N(C)C(=O)CN(C)C1=O [PP1338] | B (a compound having 3 or more and less than 10 is denoted as B) | B (a compound having 3 or more and less than 10 is denoted as B) | 0.14 | 35 |
| C#CC[C@H]1C(=O)N[C@@H]([C@@H](C)CC)C(=O)N(C)CC(=O)N(C)[C@H]2CC[C@@H](C)CN(C2=O)[C@@H](Cc2ccc(C(F)(F)F)cc2)C(=O)N(C)CC(=O)N[C@@H](CCc2ccc(C(F)(F)F)c(Cl)c2)C(=O)N2CCC[C@H]2C(=O)NC2(CCCC2)C(=O)N(C)[C@@H](C2CCCC2)C(=O)N(C)[C@H](C(=O)N(C)C)CC(=O)N1C [PP1340] | B (a compound having 3 or more and less than 10 is denoted as B) | B (a compound having 3 or more and less than 10 is denoted as B) | 0.081 | 10.9 |
| CC[C@H](C)[C@@H]1NC(=O)[C@H](CC2CC2)N(C)C(=O)C[C@@H](C(=O)N2CCOCC2)N(C)C(=O)[C@H](C2CCCC2)N(C)C(=O)C2(CCC2)NC(=O)[C@@H]2CCCN2C(=O)[C@H](CCc2ccc(C(F)(F)F)c(Cl)c2)NC(=O)CN(C)C(=O)[C@H](Cc2ccc(C(F)(F)F)cc2)N2C[C@H](C)CC[C@@H](C2=O)N(C)C(=O)[C@@H]2CCN2C1=O [PP1341] | B (a compound having 3 or more and less than 10 is denoted as B) | A (a compound having 10 or more and less than 20 is denoted as A) | 0.81 | 46.3 |
| CC[C@H](C)[C@@H]1NC(=O)[C@H](CC2CCC2)N(C)C(=O)C[C@@H](C(=O)N(C)C)N(C)C(=O)[C@H](C2CCCC2)N(C)C(=O)C2(CCCC2)NC(=O)[C@@H]2CCCN2C(=O)[C@H](CCc2ccc(C(F)(F)F)c(Cl)c2)NC(=O)CN(C)C(=O)[C@H](Cc2ccc(C(F)(F)F)cc2)N2C[C@H](C)CC[C@@H](C2=O)N(C)C(=O)CN(C)C1=O [PP1342] | B (a compound having 3 or more and less than 10 is denoted as B) | B (a compound having 3 or more and less than 10 is denoted as B) | 0.091 | 5 |
| CC[C@H](C)[C@@H]1NC(=O)[C@H](CC2CC2)N(C)C(=O)C[C@@H](C(=O)N2CCOCC2)N(C)C(=O)[C@H](C2CCCC2)N(C)C(=O)C2(CCCC2)NC(=O)[C@@H]2CCCN2C(=O)[C@H](CCc2ccc(C(F)(F)F)c(Cl)c2)NC(=O)CN(C)C(=O)[C@H](Cc2ccc(C(F)(F)F)cc2)N2C[C@H](C)CC[C@@H](C2=O)N(C)C(=O)CN(C)C1=O [PP1343] | B (a compound having 3 or more and less than 10 is denoted as B) | A (a compound having 10 or more and less than 20 is denoted as A) | 0.27 | 19.3 |
| CC[C@H](C)[C@@H]1NC(=O)[C@H](CC2CC2)N(C)C(=O)C[C@@H](C(=O)N2CCOCC2)N(C)C(=O)[C@H](C2CCCC2)N(C)C(=O)C2(CCC2)NC(=O)[C@@H]2CCCN2C(=O)[C@H](CCc2ccc(C(F)(F)F)c(Cl)c2)NC(=O)CN(C)C(=O)[C@H](Cc2ccc(C(F)(F)F)cc2)N2C[C@H](C)CC[C@@H](C2=O)N(C)C(=O)CN(C)C1=O [PP1344] | B (a compound having 3 or more and less than 10 is denoted as B) | B (a compound having 3 or more and less than 10 is denoted as B) | 0.14 | 16.7 |
| CC[C@H](C)[C@@H]1NC(=O)[C@H](CC2CCC2)N(C)C(=O)C[C@@H](C(=O)N2CCOCC2)N(C)C(=O)[C@H](C2CCCC2)N(C)C(=O)C2(CCC2)NC(=O)[C@@H]2CCCN2C(=O)[C@H](CCc2ccc(C(F)(F)F)c(Cl)c2)NC(=O)CN(C)C(=O)[C@H](Cc2ccc(C(F)(F)F)cc2)N2C[C@H](C)CC[C@@H](C2=O)N(C)C(=O)[C@@H]2CCN2C1=O [PP1345] | B (a compound having 3 or more and less than 10 is denoted as B) | A (a compound having 10 or more and less than 20 is denoted as A) | 0.71 | 34.8 |
| CC[C@H](C)[C@@H]1NC(=O)[C@H](CC2CC2)N(C)C(=O)C[C@@H](C(=O)N(C)C)N(C)C(=O)[C@H](C2CCCC2)N(C)C(=O)C2(CCCC2)NC(=O)[C@@H]2CCCN2C(=O)[C@H](CCc2ccc(C(F)(F)F)c(Cl)c2)NC(=O)CN(C)C(=O)[C@H](Cc2ccc(C(F)(F)F)cc2)N2C[C@H](C)CC[C@@H](C2=O)N(C)C(=O)CN(C)C1=O [PP1346] | B (a compound having 3 or more and less than 10 is denoted as B) | B (a compound having 3 or more and less than 10 is denoted as B) | 0.084 | 7.2 |
| CCO[C@@H]1C[C@H]2C(=O)NC3(CCC3)C(=O)N(C)[C@@H](C3CCCC3)C(=O)N(C)[C@H](C(=O)N3CCOCC3)CC(=O)N(C)[C@@H](CC)C(=O)N[C@@H]([C@@H](C)CC)C(=O)N3CC[C@H]3C(=O)N(C)[C@H]3C[C@@H](C)[C@@H](C)CN(C3=O)[C@@H](Cc3ccc(C(F)(F)F)cc3)C(=O)N(C)CC(=O)N[C@@H](CCc3cc(F)c(C(F)(F)F)c(F)c3)C(=O)N2C1 [PP1351] | B (a compound having 3 or more and less than 10 is denoted as B) | A (a compound having 10 or more and less than 20 is denoted as A) | 0.13 | 12.8 |
| CCO[C@@H]1C[C@H]2C(=O)NC3(CCCC3)C(=O)N(C)[C@@H](C3CCCC3)C(=O)N(C)[C@H](C(=O)N(C)C)CC(=O)N(C)[C@@H](CC)C(=O)N[C@@H]([C@@H](C)CC)C(=O)N(C)CC(=O)N(C)[C@H]3C[C@@H](C)[C@@H](C)CN(C3=O)[C@@H](Cc3ccc(C(F)(F)F)cc3)C(=O)N(C)CC(=O)N[C@@H](CCc3cc(F)c(C(F)(F)F)c(F)c3)C(=O)N2C1 [PP1352] | B (a compound having 3 or more and less than 10 is denoted as B) | A (a compound having 10 or more and less than 20 is denoted as A) | 0.024 | 4.6 |
| CCO[C@@H]1C[C@H]2C(=O)NC3(CCCC3)C(=O)N(C)[C@@H](C3CCCC3)C(=O)N(C)[C@H](C(=O)N3CCOCC3)CC(=O)N(C)[C@@H](CC)C(=O)N[C@@H]([C@@H](C)CC)C(=O)N(C)CC(=O)N(C)[C@H]3C[C@@H](C)[C@@H](C)CN(C3=O)[C@@H](Cc3ccc(C(F)(F)F)cc3)C(=O)N(C)CC(=O)N[C@@H](CCc3cc(F)c(C(F)(F)F)c(F)c3)C(=O)N2C1 [PP1353] | B (a compound having 3 or more and less than 10 is denoted as B) | A (a compound having 10 or more and less than 20 is denoted as A) | 0.1 | 3.7 |
| CCO[C@@H]1C[C@H]2C(=O)NC3(CCC3)C(=O)N(C)[C@@H](C3CCCC3)C(=O)N(C)[C@H](C(=O)N3CCOCC3)CC(=O)N(C)[C@@H](CC)C(=O)N[C@@H]([C@@H](C)CC)C(=O)N(C)CC(=O)N(C)[C@H]3C[C@@H](C)[C@@H](C)CN(C3=O)[C@@H](Cc3ccc(C(F)(F)F)cc3)C(=O)N(C)CC(=O)N[C@@H](CCc3cc(F)c(C(F)(F)F)c(F)c3)C(=O)N2C1 [PP1354] | B (a compound having 3 or more and less than 10 is denoted as B) | A (a compound having 10 or more and less than 20 is denoted as A) | 0.056 | 3.6 |
| CCO[C@@H]1C[C@H]2C(=O)NC3(CCC3)C(=O)N(C)[C@@H](C3CCCC3)C(=O)N(C)[C@H](C(=O)N3CCOCC3)CC(=O)N(C)[C@@H](CC(C)C)C(=O)N[C@@H]([C@@H](C)CC)C(=O)N3CC[C@H]3C(=O)N(C)[C@H]3C[C@@H](C)[C@@H](C)CN(C3=O)[C@@H](Cc3ccc(C(F)(F)F)cc3)C(=O)N(C)CC(=O)N[C@@H](CCc3cc(F)c(C(F)(F)F)c(F)c3)C(=O)N2C1 [PP1355] | B (a compound having 3 or more and less than 10 is denoted as B) | A (a compound having 10 or more and less than 20 is denoted as A) | 0.16 | 10.2 |
| CCO[C@@H]1C[C@H]2C(=O)NC3(CCCC3)C(=O)N(C)[C@@H](C3CCCC3)C(=O)N(C)[C@H](C(=O)N(C)C)CC(=O)N(C)[C@@H](CC3CC3)C(=O)N[C@@H]([C@@H](C)CC)C(=O)N(C)CC(=O)N(C)[C@H]3C[C@@H](C)[C@@H](C)CN(C3=O)[C@@H](Cc3ccc(C(F)(F)F)cc3)C(=O)N(C)CC(=O)N[C@@H](CCc3cc(F)c(C(F)(F)F)c(F)c3)C(=O)N2C1 [PP1356] | B (a compound having 3 or more and less than 10 is denoted as B) | B (a compound having 3 or more and less than 10 is denoted as B) | 0.047 | 3.3 |
| CCO[C@@H]1C[C@H]2C(=O)NC3(CCC3)C(=O)N(C)[C@@H](C3CCCC3)C(=O)N(C)[C@H](C(=O)N3CCOCC3)CC(=O)N(C)[C@@H](CC)C(=O)N[C@@H]([C@@H](C)CC)C(=O)N3CC[C@H]3C(=O)N(C)[C@H]3C[C@@H](C)[C@@H](C)CN(C3=O)[C@@H](Cc3ccc(C(F)(F)F)cc3)C(=O)N(C)CC(=O)N[C@@H](CCc3ccc(C(F)(F)F)c(Cl)c3)C(=O)N2C1 [PP1357] | B (a compound having 3 or more and less than 10 is denoted as B) | A (a compound having 10 or more and less than 20 is denoted as A) | 0.13 | 5.4 |
